From article PMC6887723, “Design and Synthesis of 4-(Heterocyclic Substituted Amino)-1H-Pyrazole-3-Carboxamide Derivatives and Their Potent Activity against Acute Myeloid Leukemia (AML)” (International Journal of Molecular Sciences, 2019) come the findings set out here.

One data set has as its target T1, CDK4 (Homo sapiens, UniProt P11802).
T1 construct: purchased Reaction Biology Corp
The experiment in a line: CDK4 kinase activity assay (Hot-Spot). The note with it: 10 μM ATP; mean ± SD, three independent experiments. It counts as biochemical. As to the method: (§1) Activities of kinases were determined using Hot-SpotSM kinase assay which was performed by Reaction Biology Corp. (Malvern PA, USA) as described previously.

Another data set concerns the target T2, FLT3 (Homo sapiens, UniProt P36888).
T2 construct: purchased Reaction Biology Corp
T2 sequence (P36888 27-993): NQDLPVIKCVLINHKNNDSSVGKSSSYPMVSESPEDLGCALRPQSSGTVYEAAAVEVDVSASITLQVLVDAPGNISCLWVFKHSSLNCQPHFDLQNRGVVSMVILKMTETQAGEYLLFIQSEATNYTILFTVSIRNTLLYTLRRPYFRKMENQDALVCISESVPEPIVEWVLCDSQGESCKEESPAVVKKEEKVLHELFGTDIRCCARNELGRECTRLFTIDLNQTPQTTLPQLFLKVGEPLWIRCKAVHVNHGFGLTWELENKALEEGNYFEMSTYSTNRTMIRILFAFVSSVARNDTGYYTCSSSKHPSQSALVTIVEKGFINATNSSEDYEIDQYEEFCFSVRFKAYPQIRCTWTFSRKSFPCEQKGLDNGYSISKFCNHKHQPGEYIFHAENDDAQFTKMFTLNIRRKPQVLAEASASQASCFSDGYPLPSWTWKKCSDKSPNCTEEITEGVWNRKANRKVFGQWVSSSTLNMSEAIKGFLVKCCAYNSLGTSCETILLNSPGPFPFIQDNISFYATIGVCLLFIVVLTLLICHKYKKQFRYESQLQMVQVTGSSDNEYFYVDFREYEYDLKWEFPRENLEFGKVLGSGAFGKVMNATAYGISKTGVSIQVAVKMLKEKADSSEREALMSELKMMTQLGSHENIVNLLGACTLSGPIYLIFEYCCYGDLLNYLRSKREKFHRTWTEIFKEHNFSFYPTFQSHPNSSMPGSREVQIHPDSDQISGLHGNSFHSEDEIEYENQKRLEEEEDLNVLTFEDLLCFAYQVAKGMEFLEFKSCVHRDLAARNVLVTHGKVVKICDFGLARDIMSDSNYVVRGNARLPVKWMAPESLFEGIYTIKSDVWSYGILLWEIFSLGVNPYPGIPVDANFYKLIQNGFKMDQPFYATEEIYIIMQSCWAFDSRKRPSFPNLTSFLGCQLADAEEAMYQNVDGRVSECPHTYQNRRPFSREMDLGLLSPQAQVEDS
The experiment in a line: FLT3 kinase activity assay (Hot-Spot). The note with it: 10 μM ATP; mean ± SD, three independent experiments. It counts as biochemical. As to the method:
as §1

Another data set concerns MV4-11. As to the kind of experiment: Cell growth inhibition assay (CellTiter-Glo). The class given is cell-based. Conditions: Homo sapiens, 72 h, highest test concentration 1 μM, mean ± SD, three independent experiments. The procedure: The human AML cell line MV4-11 was purchased from the American Type Culture Collection (ATCC) (Manassas, VA, USA). MV4-11 was cultured in IMDM media (Corning, Crown Bioscience Inc., Taicang, China) with 10% FBS and supplemented with 2% L-glutamine and 1% pen/strep. The MV4-11 cell line was maintained in culture media at 37 °C with 5% CO2. The effects of target compounds on MV4-11 proliferation was performed by Crown Bioscience Inc. Cells were grown in 96-well culture plates (10,000/well). The compounds of various concentrations were added into the plates. Cell proliferation was determined after treatment with compounds for 72 h. Cell viability was measured using the CellTiter-Glo assay (Promega, Crown Bioscience Inc., Taicang, China) according to the manufacturer’s instructions, and luminescence was measured in a multilabel reader (Envision2014, PerkinElmer, Crown Bioscience Inc., Taicang, China). Data were normalized to the control group (DMSO) and represented by the mean of three independent measurements with standard error of <20%. IC50 values were calculated using Prism 5.0 (GraphPad Software, San Diego, CA, USA).
For orientation: ATP-based viability assays read luminescence as a measure of living cells.

For the next data set, the target named is FLT3 mutants. As to the kind of experiment: Hot-Spot kinase profiling, FLT3 mutants together. The note with it: eight FLT3 mutants, bound for all; read-out: IC50 against FLT3 mutants. It counts as biochemical. The procedure:
as §1

The subject of a further data set is BaF3 (FLT3 (ITD-F691L)). As to the kind of experiment: Antiproliferative activity in BaF3 cells transformed with FLT3-ITD-F691L. It counts as cell-based. Conditions: Mus musculus, Table S2.
The test system of the next data set is MV4-11 cells. As to the kind of experiment: Cell apoptosis assay (Annexin V-FITC/PI, flow cytometry). It counts as cell-based, human. Conditions: MV4-11, 2 μM, 24 h. As to the method: The apoptosis of MV4-11 cells was determined by Annexin V-FITC/PI assay. Annexin V binds to phosphatidylserine, which is exposed on the cell membrane and is one of the earliest indicators of cellular apoptosis. PI (Propidium Iodide) is used as a DNA stain for both flow cytometry to evaluate cell viability or DNA content in cell cycle analysis and microscopy to visualize the nucleus and other DNA containing organelles. It can be used to differentiate necrotic, apoptotic, and normal cells. Cells (2 × 10^5) were seeded in 6-well plate and were treated with varying concentrations of inhibitor for 24 h. MV4-11 cells were collected and incubated with FITC-conjugated Annexin V (Nanjing keyGen Biotech Company, Nanjing, China). The nuclei were then counterstained with PI. After the dual staining, the cells were screened by a FAC Scan flow cytometer (FACS Calibun, Becton Dickinson, Nanjing, China). The upper left corner of the quadrant represents debris, lower left are live cells, upper right are advanced apoptotic or necrotic cells and lower right are apoptotic cells.
A general note: A flow cytometer gives signals particle by particle.

In data set [1] the test system is phosphorylation of the FLT3. As to the kind of experiment: Western blot, phosphorylation of FLT3 in MV4-11 cells. The class given is cell-based, human. Conditions: MV4-11, 4 h, 1 μM; dose-dependent, more potent than sorafenib. As to the method: Analysis of pFLT3, pSTAT5, pERK, pAKT, and pRb in vitro: to determine the levels of pFLT3, pSTAT5, pERK, pAKT, and pRb, cells were seeded in a 6-well cell culture plate at a density of 400,000 cells per well for MV4-11 in a total volume of 1800 μL and incubated overnight in medium containing 10% fetal bovine serum (Life Technologies, Rockville, MD, USA). Then 200 μL of serially diluted compounds were added to each well the next day. Cell lysates were harvested after 4 h and pFLT3, pSTAT5, pERK, pAKT, or pRb were quantified using assay kits for FLT3/Phospho-FLT3Tyr589/591, pSTAT5 (Tyr694)/total STAT5, pRb (Ser807)/total Rb (Nanjin keyGen Biotech Company, Nanjing, China) following the manufacturer’s protocols.
In general terms: In western blotting, separated proteins are transferred to a membrane and probed.

Data set [2] concerns human cell lines of NCI60. As to the kind of experiment: NCI60 screening, overall. The class given is cell-based. Conditions: for most cell lines. From the text:
(§2) With these findings, we submitted compound 8t to National Cancer Institute (NCI) to evaluate their antitumor efficacy against 60 human cancer cell lines.

The subject of the next data set is M14. As to the kind of experiment: NCI60 screening. It counts as cell-based. Conditions: Homo sapiens, Melanoma panel.
Text: as §2

In the next data set the test system is MDA-MB-435. The experiment in a line: NCI60 screening. The class given is cell-based. Conditions: Homo sapiens, Melanoma panel.
Text: as §2

The subject of a further data set is UACC-62. The experiment in a line: NCI60 screening. The note with it: Homo sapiens, Melanoma panel. It counts as cell-based.
Text: as §2

T1 sequence (P11802 whole entry): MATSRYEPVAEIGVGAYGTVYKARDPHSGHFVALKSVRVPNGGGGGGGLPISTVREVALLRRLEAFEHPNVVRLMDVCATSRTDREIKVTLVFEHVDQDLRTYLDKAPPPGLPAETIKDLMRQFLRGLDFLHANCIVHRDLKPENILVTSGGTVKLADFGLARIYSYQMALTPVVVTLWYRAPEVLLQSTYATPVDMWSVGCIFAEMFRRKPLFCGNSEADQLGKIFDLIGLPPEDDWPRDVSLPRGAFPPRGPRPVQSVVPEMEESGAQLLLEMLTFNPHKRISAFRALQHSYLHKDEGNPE
T1 sequence (P24385 whole entry partner): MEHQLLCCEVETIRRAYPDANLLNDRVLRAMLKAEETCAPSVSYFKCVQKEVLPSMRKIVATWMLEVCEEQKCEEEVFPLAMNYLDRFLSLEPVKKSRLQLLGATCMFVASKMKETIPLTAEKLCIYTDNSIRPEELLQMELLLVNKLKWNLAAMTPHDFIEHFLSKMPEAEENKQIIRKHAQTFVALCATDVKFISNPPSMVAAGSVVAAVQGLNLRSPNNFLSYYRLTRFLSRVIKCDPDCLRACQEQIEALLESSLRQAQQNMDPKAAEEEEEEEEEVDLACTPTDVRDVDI

Consider `O=C(Nc1ccc(N2CCNCC2)cc1)c1n[nH]cc1Nc1ncnc2sc3c(c12)CCC3` [Compound 8t], for which the melting point (as a rule, the temperature, or range, at which the solid turns liquid) was 266 to 268 °C. Half-maximal inhibition on CDK4 (IC50) required 0.77 ± 0.007 nM. Further, at FLT3, 0.089 ± 0.013 nM corresponded to half-maximal inhibition (IC50). In addition, half-maximal inhibition in the data set on MV4-11 (IC50) was put at 1.22 ± 0.06 nM. Further, the IC50 – broadly, the concentration needed to halve the response being measured – at FLT3 mutants was less than 5 nM. Moreover, in the data set with BaF3 (FLT3 (ITD-F691L)), 21.9 nM corresponded to half-maximal inhibition (IC50). The molecule also yielded an apoptosis rate in the data set with MV4-11 cells of 51.36%. Moreover, the “phosphorylation of the FLT3” value in [1] was “eliminated”. The GI50 (in general, the concentration giving 50% growth inhibition) in data set [2] was less than 1000 nM. Besides, the GI50 with M14 stood at 120 nM. Moreover, in the data set with MDA-MB-435, the GI50 turned out to be 110 nM. The molecule also gave a GI50 in the data set with UACC-62 of 1090 nM.
